For assay [1], the system named is macrophage. The experiment in a line: Flow cytometry of thioglycolate-elicited peritoneal macrophages gated on F4/80, CD 206 expression (M2 marker). In kind it is cell-based, ND4 mice. As to conditions: 20 nanomolar; targeted group vs competition group (plus 100-fold excess folate-glucosamine); macrophage gated on F4/80. Here is the method:
(§1) FIG. 6 is an example of compound 101 in flow cytometry of macrophage gated on F4/80 to show CD 206 expression (a marker for M2, anti-inflammatory macrophages). Briefly, 1.5 mL of 3% thioglycolate were injected into the intraperitoneal cavity of 12-week-old ND4 mice. Three days later the macrophages were isolated by intraperitoneal lavage and plated in a 12-well dish and incubated at 37° C./5% CO2. After 24 hours, the media was replaced with media containing 20 nanomolar the compound in FIGS. 1 or 20 nanomolar of the compound in FIG. 1 plus 100-fold excess folate-glucosamine (to show receptor-specific binding) or untreated control or 10 nanomolar free dexamethasone (to show the effect of the free drug) and allowed to incubate at 37° C./5% CO2 for the allotted time. Then 3 days later the cells were detached and incubated with the corresponding fluorescently labeled antibodies for 1 hour at 4° C. in 1% fetal bovine serum (FBS) in phosphate- buffered saline (PBS). The samples were then washed 3 times with ice-cold 1% FBS in PBS before being analyzed by flow cytometry.

Assay [2] has as its system macrophage. In words: Flow cytometry of macrophage, CD 86 expression (M1 marker). In kind it is cell-based, ND4 mice. As to conditions: 20 nanomolar compound, with or without folate-glucosamine competition; treatment for 24 hours. Here is the method:
as §1, with “After 24 hours, the media was replaced with media containing 20 nanomolar the compound in FIGS.” left out, “Then 3 days later the cells were detached and incubated with the corresponding fluorescently labeled antibodies for 1 hour at 4° C. in 1% fetal bovine serum (FBS) in phosphate- buffered saline (PBS).” left out
FIG. 8 is an example of Compound 101 in flow cytometry of macrophage to show CD 86 expression with controls.

In assay [3] the test system is F4/80 (mouse macrophage), CD4 (T helper cell), CD8 (cytotoxic T cell), and Ly6G (neutrophil) cells. In words: Thioglycollate-induced peritonitis, flow cytometry of peritoneal lavage cells. As to conditions: treated group vs the untreated or vehicle, peritoneal cavity; for percentage of F4/80 macrophages: 10 nmol I.V. 48 hrs after induction stated for Compound 107. The format is in vivo, BALB/C or Swiss Webster mice. The procedure: Induced peritonitis with 1.5 mL 3% thioglycollate injected I.P. into either BALB/C or Swiss Webster mice maintained on a folate free diet for at least three weeks and treated with 10 nmol Compound 107 injected I.V. 48 hrs after induction. After an additional 48 hrs the mice were euthanized, and peritoneal lavage was performed using 2% fetal bovine serum (FBS) in phosphate buffered saline (PBS). Cells were passed through a 70 µm cell filter to remove debris then counted using a hemocytometer. Approximately 1 million cells pre-incubated in anti-CD16/32 (to block endogenous Fc receptor binding) for one hour on ice in 100 µL of 2% FBS in PBS. Then the cells incubated with at least one of the following fluorescently labeled antibodies for cell surface markers: PE-F4/80 or PE/Cy7-F4/80 (mouse macrophage), FITC-CD4 (T helper cell), eFluor780-CD8 (cytotoxic T cell), and PerCP/Cy5.5-Ly6G (neutrophil) according to the manufacturers recommended procedure on ice for 1 hour. Cells were washed twice with 1 mL of ice cold 2% FBS in PBS then suspended in 2% FBS in PBS. Controls included unstained cells as the negative control as well as the use of 1 drop of compensation beads per dye-antibody (1 µL) for a positive control incubated for 1 hour on ice and washed twice with 1 mL 2% FBS in PBS. All samples were centrifuged at 400xg for 10 min between washes, transfers and after incubation to remove supernatant.
Samples and appropriate controls were analyzed on an Attune NxT Acoustic Focusing Cytometer collecting between 10,000 and 30,000 events per sample utilizing laser lines BL1-A, BL2-A, BL3-A, and YL4-A for FITC-CD4, PE-F4/80, PerCP/Cy5.5-Ly6G and eFluor780-CD8 or PE/Cy7-F4/80, respectively. Flow cytometry data analysis involved first observing the cells run in the experiment using forward and side-scattering light (FSC and SSC, respectively). All observed cells were gated (R1) and analyzed for relative abundance of F4/80 (mouse macrophage), CD4 (T helper cell), CD8 (cytotoxic T cell), and Ly6G (neutrophil) cells within the population. Values from quadrant gating based on negative controls were then represented in bar graph form.
Background: In flow cytometry, cells or beads pass a laser one at a time.

The next assay concerns colon. As to conditions: 10nmols i.v. on days 3 and 4; 2.5% DSS for 6 days; treated vs untreated colon, day 6. The procedure: 8-12 week old C57BL/6 mice were maintained on a folate free diet for at least three week dextran sodium sulfate (DSS) was added to their drinking water at a final concentration of 2.5% for 6 days. […] On day 6 the mice were euthanized by CO2 affixation followed by cervical dislocation. Then the colons were excised and prepared for histology as described previously (J Vis Exp. 2012; (60): 3678.). Briefly, the colons were cut out and the fecal contents were gently removed and washed in PBS. The colons were fixed in 10% buffered formalin for 24 hrs followed by transfer to 70% ethanol. These samples were submitted to the Purdue Veterinary Pathology lab where they were embedded in paraffin, sectioned, and stained with hematoxylin and eosin.

For the compound `C[C@H]1C[C@@H]2[C@H]3CCC4=CC(=O)C=C[C@@]4(C)[C@]3(F)[C@H](O)C[C@@]2(C)[C@]1(O)C(=O)COC(=O)NCCSSC(C)(C)C(NC(=O)c1ccc(NCc2cnc3nc(N)[nH]c(=O)c3n2)cc1)C(=O)O` (some centres unmarked) [Compound 101, Folate-Hydrolink-Cysteine-Carbonate-Dexamethasone], the “CD 206 expression (marker for M2, anti-inflammatory macrophages)” value with macrophage [1] is recorded as “Increased expression of CD 206 in the targeted group over the competition group”. Further, the “CD 86 expression (marker for M1, pro-inflammatory macrophages)” value in the assay with macrophage [2] was “no observable differences”.
As for “Folate-AlbuminBinder-PEG2-Hydrolink-DimethylCysteine-Carbamate-Dexamethasone [Compound 107]”, in assay [3], the “percentage of FITC-CD4 (T helper cell)” value is recorded as “lower”, the “percentage of PerCP/Cy5.5-Ly6G (neutrophil)” value is recorded as “lower”, the “percentage of eFluor780-CD8 (cytotoxic T cell)” value is recorded as “lower” and the “percentage of F4/80 macrophages” value is “lower”. Further, in the assay with colon, the “crypt architecture (colon histology)” value is “more crypt architecture”, the “infiltrating immune cells (colon histology)” value was “fewer infiltrating immune cells” and the “number of goblet cells (colon histology)” value was “higher number of goblet cells”.
As to “Folate-PEG2-Hydrolink-DimethylCysteine-Carbamate-Dexamethasone [Compound 106]”, the “percentage of F4/80 macrophages” value in assay [3] is reported as “lower”.
As to “Folate-PEG12(CH2)-Pyrophosphate-Dexamethasone [Compound 108]”, in assay [3], the “percentage of FITC-CD4 (T helper cell)” value was “lower”, the “percentage of PerCP/Cy5.5-Ly6G (neutrophil)” value is “lower”, the “percentage of eFluor780-CD8 (cytotoxic T cell)” value is “lower” and the “percentage of F4/80 macrophages” value was “lower”.

Source of the values: patent US20230331767A1, “TARGETED STEROID COMPOUNDS” (priority 2020, published 2023).
